Reference: patent US6358885B1, “Substituted phenylheterocyclic herbicides” (Mississippi State University, priority 1992, dated 2002)

Tests used:
giant foxtail [1] = experiment: Test A preemergence/postemergence greenhouse plant response rating 0 to 10; assay type: in vivo, Setaria faberii; details: 0 to 10 scale, 0 is no effect, 10 is complete control
Description: (§1) Seeds of barnyardgrass (Echinochchloa crus-galli), cheatgrass (Bromus secalinus), cocklebur (Xanthium pensylvanicum), crabgrass (Digitaria spp.), giant foxtail (Setaria faberii), morningglory (Ipomoea spp.), sorghum (Sorghum bicolor), velvetleaf (Abutilon theophrasti), and wild oat (Avena fatua) were planted into a sandy loam soil and treated preemergence with test chemicals dissolved in a non-phytotoxic solvent. At the same time, these crop and weed species were also treated postemergence with test chemicals. Plants ranged in height from two to eighteen cm and were in the two to three leaf stage for the postemergence treatment. Treated plants and untreated controls were maintained in a greenhouse for approximately eleven days, after which all treated plants were compared to untreated controls and visually evaluated for injury. Plant response ratings, summarized in Table A, are based on a 0 to 10 scale where 0 is no effect and 10 is complete control. A dash (-) response means no test results.

sorghum = experiment: as above; assay type: in vivo, Sorghum bicolor; details: 0 to 10 scale, 0 is no effect, 10 is complete control
Description: as §1

velvetleaf [2] = experiment: as above; assay type: in vivo, Abutilon theophrasti; details: 0 to 10 scale, 0 is no effect, 10 is complete control
Description: as §1

crabgrass [3] = experiment: as above; assay type: in vivo, Digitaria spp.; details: 0 to 10 scale, 0 is no effect, 10 is complete control
Description: as §1

cocklebur [4] = experiment: as above; assay type: in vivo, Xanthium pensylvanicum; details: 0 to 10 scale, 0 is no effect, 10 is complete control
Description: as §1

barnyardgrass [5] = experiment: as above; assay type: in vivo, Echinochchloa crus-galli; details: 0 to 10 scale, 0 is no effect, 10 is complete control
Description: as §1

morningglory [6] = experiment: as above; assay type: in vivo, Ipomoea spp.; details: 0 to 10 scale, 0 is no effect, 10 is complete control
Description: as §1

cheatgrass = experiment: as above; assay type: in vivo, Bromus secalinus; details: 0 to 10 scale, 0 is no effect, 10 is complete control
Description: as §1

wild oat = experiment: as above; assay type: in vivo, Avena fatua; details: 0 to 10 scale, 0 is no effect, 10 is complete control
Description: as §1

jimsonweed = experiment: Test H postemergence greenhouse plant response rating 0 to 10; assay type: in vivo, Datura stramonium; details: 0 to 10 scale (0 no effect, 10 complete control)
Source text: (§2) Seeds of barnyardgrass (Echinochloa crus-galli), black nightshade (Solanum ptycanthum dunal), cocklebur (Xanthium pensylvanicum), common ragweed (Ambrosia elatior), corn (Zea mays), cotton (Gossypium hirsutam), crabgrass (Digitaria spp.), giant foxtail (Setaria faberii), jimsonweed (Datura stramonium), johnson grass (Sorghum halepense), morningglory (Ipomoea spp.), smartweed (Polygonum pensylvanicum), soybean (Glycine max), velvetleaf (Abutilon theophrasti) and purple nutsedge (Cyperus rotundus) tubers were planted into a silt loam soil. These crops and weeds were grown in the greenhouse until the plants ranged in height from two to eighteen cm (one to four leaf stage), then treated postemergence with the test chemicals dissolved in a non-phytotoxic solvent. Pots receiving these postemergence treatments were placed in the greenhouse and maintained according to routine greenhouse procedures. Treated plants and untreated controls were maintained in the greenhouse approximately 21 days after application of the test compound. Visual evaluations of plant injury responses were then recorded.

purple nutsedge = experiment: as above; assay type: in vivo, Cyperus rotundus; details: 0 to 10 scale (0 no effect, 10 complete control)
Source text: as §2

cocklebur [7] = experiment: as above; assay type: in vivo, Xanthium pensylvanicum; details: 0 to 10 scale (0 no effect, 10 complete control)
Source text: as §2

common ragweed = experiment: as above; assay type: in vivo, Ambrosia elatior; details: 0 to 10 scale (0 no effect, 10 complete control)
Source text: as §2

corn = experiment: as above; assay type: in vivo, Zea mays; details: 0 to 10 scale (0 no effect, 10 complete control)
Source text: as §2

giant foxtail [8] = experiment: as above; assay type: in vivo, Setaria faberii; details: 0 to 10 scale (0 no effect, 10 complete control)
Source text: as §2

johnson grass = experiment: as above; assay type: in vivo, Sorghum halepense; details: 0 to 10 scale (0 no effect, 10 complete control)
Source text: as §2

crabgrass [9] = experiment: as above; assay type: in vivo, Digitaria spp.; details: 0 to 10 scale (0 no effect, 10 complete control)
Source text: as §2

velvetleaf [10] = experiment: as above; assay type: in vivo, Abutilon theophrasti; details: 0 to 10 scale (0 no effect, 10 complete control)
Source text: as §2

smartweed = experiment: as above; assay type: in vivo, Polygonum pensylvanicum; details: 0 to 10 scale (0 no effect, 10 complete control)
Source text: as §2

morningglory [11] = experiment: as above; assay type: in vivo, Ipomoea spp.; details: 0 to 10 scale (0 no effect, 10 complete control)
Source text: as §2

black nightshade = experiment: as above; assay type: in vivo, Solanum ptycanthum dunal; details: 0 to 10 scale (0 no effect, 10 complete control)
Source text: as §2

barnyardgrass [12] = experiment: as above; assay type: in vivo, Echinochloa crus-galli; details: 0 to 10 scale (0 no effect, 10 complete control)
Source text: as §2

cotton = experiment: as above; assay type: in vivo, Gossypium hirsutam; details: 0 to 10 scale (0 no effect, 10 complete control)
Source text: as §2

soybean = experiment: as above; assay type: in vivo, Glycine max; details: 0 to 10 scale (0 no effect, 10 complete control)
Source text: as §2

## Clc1ccc(-c2nc3n(c2Br)CCCC3)c(Cl)c1 [Compound 2]
Giant foxtail [1]; POSTEMERGENCE, Rate 2000 g/ha
  Plant response rating, Giant foxtail: 9
Giant foxtail [1]; PREEMERGENCE, Rate 2000 g/ha
  Plant response rating, Giant foxtail: 10
sorghum; POSTEMERGENCE, Rate 2000 g/ha
  Plant response rating, Sorghum: 6
sorghum; PREEMERGENCE, Rate 2000 g/ha
  Plant response rating, Sorghum: 8
Velvetleaf [2]; POSTEMERGENCE, Rate 2000 g/ha
  Plant response rating, Velvetleaf: 10
Velvetleaf [2]; PREEMERGENCE, Rate 2000 g/ha
  Plant response rating, Velvetleaf: 10
Crabgrass [3]; POSTEMERGENCE, Rate 2000 g/ha
  Plant response rating, Crabgrass: 7
Crabgrass [3]; PREEMERGENCE, Rate 2000 g/ha
  Plant response rating, Crabgrass: 8
Cocklebur [4]; POSTEMERGENCE, Rate 2000 g/ha
  Plant response rating, Cocklebur: 10
Cocklebur [4]; PREEMERGENCE, Rate 2000 g/ha
  Plant response rating, Cocklebur: 0
Barnyardgrass [5]; POSTEMERGENCE, Rate 2000 g/ha
  Plant response rating, Barnyardgrass: 9
Barnyardgrass [5]; PREEMERGENCE, Rate 2000 g/ha
  Plant response rating, Barnyardgrass: 9
Morningglory [6]; POSTEMERGENCE, Rate 2000 g/ha
  Plant response rating, Morningglory: 10
Morningglory [6]; PREEMERGENCE, Rate 2000 g/ha
  Plant response rating, Morningglory: 2
cheatgrass; POSTEMERGENCE, Rate 2000 g/ha
  Plant response rating, Cheatgrass: 7
cheatgrass; PREEMERGENCE, Rate 2000 g/ha
  Plant response rating, Cheatgrass: 6
Wild oat; POSTEMERGENCE, Rate 2000 g/ha
  Plant response rating, Wild oats: 5
Wild oat; PREEMERGENCE, Rate 2000 g/ha
  Plant response rating, Wild oats: 5

## Clc1ccc(-c2nc3n(c2Cl)CCC=C3)c(Cl)c1 [Compound 1]
Giant foxtail [1]; POSTEMERGENCE, Rate 1000 g/ha
  Plant response rating, Giant foxtail: 4
Giant foxtail [1]; PREEMERGENCE, Rate 1000 g/ha
  Plant response rating, Giant foxtail: 5
sorghum; POSTEMERGENCE, Rate 1000 g/ha
  Plant response rating, Sorghum: 4
sorghum; PREEMERGENCE, Rate 1000 g/ha
  Plant response rating, Sorghum: 0
Velvetleaf [2]; POSTEMERGENCE, Rate 1000 g/ha
  Plant response rating, Velvetleaf: 10
Velvetleaf [2]; PREEMERGENCE, Rate 1000 g/ha
  Plant response rating, Velvetleaf: 8
other
  melting point: 104 to 105 °C
Crabgrass [3]; POSTEMERGENCE, Rate 1000 g/ha
  Plant response rating, Crabgrass: 5
Crabgrass [3]; PREEMERGENCE, Rate 1000 g/ha
  Plant response rating, Crabgrass: 0
Cocklebur [4]; POSTEMERGENCE, Rate 1000 g/ha
  Plant response rating, Cocklebur: 8
Cocklebur [4]; PREEMERGENCE, Rate 1000 g/ha
  Plant response rating, Cocklebur: 0
Barnyardgrass [5]; POSTEMERGENCE, Rate 1000 g/ha
  Plant response rating, Barnyardgrass: 5
Barnyardgrass [5]; PREEMERGENCE, Rate 1000 g/ha
  Plant response rating, Barnyardgrass: 2
Morningglory [6]; POSTEMERGENCE, Rate 1000 g/ha
  Plant response rating, Morningglory: 10
Morningglory [6]; PREEMERGENCE, Rate 1000 g/ha
  Plant response rating, Morningglory: 0
cheatgrass; POSTEMERGENCE, Rate 1000 g/ha
  Plant response rating, Cheatgrass: 4
cheatgrass; PREEMERGENCE, Rate 1000 g/ha
  Plant response rating, Cheatgrass: 0
Wild oat; POSTEMERGENCE, Rate 1000 g/ha
  Plant response rating, Wild oats: 3
Wild oat; PREEMERGENCE, Rate 1000 g/ha
  Plant response rating, Wild oats: 0

## C#CCN1C(=O)COc2cc(F)c(-c3nn4c(c3Cl)CCCC4)cc21 [Compound 34]
jimsonweed; Rate 4 g/ha
  Jimson weed plant response rating: 10
jimsonweed; Rate 8 g/ha
  Jimson weed plant response rating: 10
jimsonweed; Rate 16 g/ha
  Jimson weed plant response rating: 10
Purple nutsedge; Rate 4 g/ha
  Nutsedge plant response rating: 0
Purple nutsedge; Rate 8 g/ha
  Nutsedge plant response rating: 0
Purple nutsedge; Rate 16 g/ha
  Nutsedge plant response rating: 0
Cocklebur [7]; Rate 4 g/ha
  Cocklebur plant response rating: 5
Cocklebur [7]; Rate 8 g/ha
  Cocklebur plant response rating: 10
Cocklebur [7]; Rate 16 g/ha
  Cocklebur plant response rating: 10
Common ragweed; Rate 4 g/ha
  Common Ragweed plant response rating: 0
Common ragweed; Rate 8 g/ha
  Common Ragweed plant response rating: 1
Common ragweed; Rate 16 g/ha
  Common Ragweed plant response rating: 2
corn; Rate 4 g/ha
  Corn G4689A plant response rating: 1
corn; Rate 8 g/ha
  Corn G4689A plant response rating: 1
corn; Rate 16 g/ha
  Corn G4689A plant response rating: 2
Giant foxtail [8]; Rate 4 g/ha
  Giant Foxtail plant response rating: 0
Giant foxtail [8]; Rate 8 g/ha
  Giant Foxtail plant response rating: 0
Giant foxtail [8]; Rate 16 g/ha
  Giant Foxtail plant response rating: 0
Johnson grass; Rate 4 g/ha
  Johnson Grass plant response rating: 0
Johnson grass; Rate 8 g/ha
  Johnson Grass plant response rating: 0
Johnson grass; Rate 16 g/ha
  Johnson Grass plant response rating: 0
Crabgrass [9]; Rate 4 g/ha
  Crabgrass plant response rating: 0
Crabgrass [9]; Rate 8 g/ha
  Crabgrass plant response rating: 0
Crabgrass [9]; Rate 16 g/ha
  Crabgrass plant response rating: 0
Velvetleaf [10]; Rate 4 g/ha
  Velvetleaf plant response rating: 10
Velvetleaf [10]; Rate 8 g/ha
  Velvetleaf plant response rating: 10
Velvetleaf [10]; Rate 16 g/ha
  Velvetleaf plant response rating: 10
smartweed; Rate 4 g/ha
  Smartweed plant response rating: 5
smartweed; Rate 8 g/ha
  Smartweed plant response rating: 7
smartweed; Rate 16 g/ha
  Smartweed plant response rating: 8
Morningglory [11]; Rate 4 g/ha
  Morningglory plant response rating: 10
Morningglory [11]; Rate 8 g/ha
  Morningglory plant response rating: 10
Morningglory [11]; Rate 16 g/ha
  Morningglory plant response rating: 10
Black nightshade; Rate 4 g/ha
  Black Nightshade plant response rating: 5
Black nightshade; Rate 8 g/ha
  Black Nightshade plant response rating: 10
Black nightshade; Rate 16 g/ha
  Black Nightshade plant response rating: 10
Barnyardgrass [12]; Rate 4 g/ha
  Barnyardgrass plant response rating: 0
Barnyardgrass [12]; Rate 8 g/ha
  Barnyardgrass plant response rating: 0
Barnyardgrass [12]; Rate 16 g/ha
  Barnyardgrass plant response rating: 0
cotton; Rate 4 g/ha
  Cotton plant response rating: 10
cotton; Rate 8 g/ha
  Cotton plant response rating: 10
cotton; Rate 16 g/ha
  Cotton plant response rating: 10
soybean; Rate 4 g/ha
  Soybean plant response rating: 7
soybean; Rate 8 g/ha
  Soybean plant response rating: 7
soybean; Rate 16 g/ha
  Soybean plant response rating: 10
